By Emax is commonly meant the greatest response seen or fitted, relative to the assay's reference. As a reminder, the melting point is the temperature, or range, at which the solid turns liquid. The ED50 is the midpoint of the dose-response relation.

This is an account of results in patent US10017514B2, “6,7-dihydropyrazolo[1,5-α]pyrazin-4(5H)-one compounds and their use as negative allosteric modulators of mGluR2 receptors” (Janssen Pharmaceutica NV, priority 2014, dated 2018).

Series [1] concerns the target T1, human mGlu2 receptor (Homo sapiens, UniProt Q14416).
T1 construct: expressed in transfected cells; host or cells: CHO cells (membrane preparation)
Briefly: [35S]GTPγS binding assay, mGluR2 negative allosteric modulation. Type of series: biochemical. Conditions: for Emax: maximal % inhibition relative to the control glutamate response (EC80 glutamate), read-out: GTPγS-hmGluR2 anGT Emax; for IC50: membranes from CHO cells transfected with human mGlu2 receptor, glutamate ~EC80 (60 μM), read-out: GTPγS-hmGluR2 anGT pIC50 (converted). The procedure:
Total reaction volume was 200 μl. […] Membrane-bound radioactivity was counted in a Topcount.

Series [2] relates to rats. Briefly: Reversal of the effect of the mGluR2 PAM JNJ-42153605-induced inhibition of scopolamine-induced hyperlocomotion. As to conditions: for ED50: Rattus norvegicus, rats, PO, 60 min pretreatment, JNJ-42153605 20 mg/kg i.v. + scopolamine 0.16 mg/kg i.v., criterion total distance >1500 cm in 30 min, read-out: SCOP JNJ-42153605 ED50. Type of series: in vivo, rat. The method, then: Motor activity was measured in microprocessor-based motor activity arenas (closed gray PVC cylinders with a height of 39 cm and a diameter of 31 cm). Each arena was placed on an infrared LED (8×8 LEDs) lit box (white PVC squared box; 40×40 cm^2; height 12.5 cm. An infrared-sensitive tube camera and a white light source were mounted to the ceiling above the observation chamber to track the animal. […] Noldus, Wageningen, The Netherlands). The intensity of the light within the activity cages (measured in the centre at the level of the floor) ranged between 4 and 8 LUX. The rats were pretreated with test compound or vehicle at 60 min before the start of the activity recordings and placed into individual cages. […] WO2010/130424; Cid et al. J. Med.

[3] abbreviates: historical series of solvent-pretreated control rats, first 30 min.

T1 sequence (Q14416 19-872): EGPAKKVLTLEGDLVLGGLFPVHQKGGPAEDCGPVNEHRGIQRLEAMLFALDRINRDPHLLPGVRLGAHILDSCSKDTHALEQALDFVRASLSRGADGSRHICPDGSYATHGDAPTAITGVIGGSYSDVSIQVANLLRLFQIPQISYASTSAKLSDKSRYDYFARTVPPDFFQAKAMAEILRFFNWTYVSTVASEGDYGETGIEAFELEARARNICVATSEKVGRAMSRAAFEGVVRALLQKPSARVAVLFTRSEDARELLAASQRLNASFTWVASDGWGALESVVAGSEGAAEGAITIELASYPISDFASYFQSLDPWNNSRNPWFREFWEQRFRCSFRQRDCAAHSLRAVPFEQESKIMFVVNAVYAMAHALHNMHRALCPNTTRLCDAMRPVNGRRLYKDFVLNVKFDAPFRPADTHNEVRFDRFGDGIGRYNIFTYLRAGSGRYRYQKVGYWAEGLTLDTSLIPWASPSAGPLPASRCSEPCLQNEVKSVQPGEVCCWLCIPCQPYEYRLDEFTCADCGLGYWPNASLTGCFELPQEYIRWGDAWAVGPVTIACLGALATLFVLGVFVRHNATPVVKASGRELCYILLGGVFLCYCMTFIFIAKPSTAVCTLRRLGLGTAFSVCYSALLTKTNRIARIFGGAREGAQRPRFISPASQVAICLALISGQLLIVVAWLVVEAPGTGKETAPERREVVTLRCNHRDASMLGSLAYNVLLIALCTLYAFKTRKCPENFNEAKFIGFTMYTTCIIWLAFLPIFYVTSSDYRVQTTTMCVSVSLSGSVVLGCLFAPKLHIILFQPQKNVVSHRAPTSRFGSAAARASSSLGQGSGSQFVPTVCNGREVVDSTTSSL

Take `CNc1ccc(-c2cc(-c3cnn4c3C(=O)N(c3ccc(C(F)(F)F)cc3)C[C@@H]4C)no2)cn1` [Co. No. 26, (7S)-7-methyl-3-[5-[6-(methylamino)-3-pyridyl]isoxazol-3-yl]-5-[4-(trifluoromethyl)phenyl]-6,7-dihydropyrazolo[1,5-a]pyrazin-4-one]: the melting point came to 173.7 °C. Also, in series [1], the Emax came out at 112% and the IC50 is 6.17 nM.

The compound `Cc1cncc(-c2cc(-c3cnn4c3C(=O)N(c3ccc(C(F)(F)F)c(Cl)c3)C[C@@H]4C)no2)c1` [Co. No. 12, (7S)-5-[3-chloro-4-(trifluoromethyl)phenyl]-7-methyl-3-[5-(5-methyl-3-pyridyl)isoxazol-3-yl]-6,7-dihydropyrazolo[1,5-a]pyrazin-4-one] had a melting point of 168.58 °C. Besides, in series [1], the Emax is 108% and the IC50 was 6.17 nM. For the same compound, in series [2], the ED50 was above 0.63 mg/kg.

The compound `Cc1cc(N2C[C@H](C)n3ncc(-c4cc(-c5cncc(F)c5)on4)c3C2=O)ccc1C(F)(F)F` [Co. No. 23, (7S)-3-[5-(5-fluoro-3-pyridyl)isoxazol-3-yl]-7-methyl-5-[3-methyl-4-(trifluoromethyl)phenyl]-6,7-dihydropyrazolo[1,5-a]pyrazin-4-one] registered a melting point of 168.93 °C. In addition, in series [1], the Emax is 105% and the IC50 was 20.9 nM.

Compound `Cc1cncc(-c2cc(-c3cnn4c3C(=O)N(c3ccc(C(F)(F)F)cc3)C[C@@H]4C)no2)c1` [Co. No. 7, (7S)-7-methyl-3-[5-(5-methyl-3-pyridyl)isoxazol-3-yl]-5-[4-(trifluoromethyl)phenyl]-6,7-dihydropyrazolo[1,5-a]pyrazin-4-one] came in with a melting point of 208.95 °C. In series [1], the Emax was found to be 106% and the IC50 is 27.5 nM.

On to `C[C@H]1CN(c2ccc(C(F)(F)F)cc2)C(=O)c2c(-c3cc(-c4cncc(F)c4)on3)cnn21` [Co. No. 19, (7S)-3-[5-(5-fluoro-3-pyridyl)isoxazol-3-yl]-7-methyl-5-[4-(trifluoromethyl)phenyl]-6,7-dihydropyrazolo[1,5-a]pyrazin-4-one], for which the melting point amounted to 176.27 °C. In addition, in series [1], the Emax turned out to be 101% and the IC50 is 18.6 nM.

`C[C@H]1CN(c2ccc(C(F)(F)F)cc2)C(=O)c2c(-c3cc(-c4cccnc4N)on3)cnn21` [Co. No. 24, (7S)-3-[5-(2-amino-3-pyridyl)isoxazol-3-yl]-7-methyl-5-[4-(trifluoromethyl)phenyl]-6,7-dihydropyrazolo[1,5-a]pyrazin-4-one] registered a melting point of 189.85 °C. Besides, in series [1], the Emax amounted to 106% and the IC50 was 6.03 nM.

For the compound `CN1[C@@H]2C[C@@H](OC(=O)[C@H](CO)c3ccccc3)C[C@H]1[C@@H]1O[C@@H]12` [Scopolamine, scopolamine, reference compound], in series [2] (setting [3]), the “Median total distance travelled” value was 7246 cm, the “rats travelling >1500 cm” value was determined as 100% and the “rats travelling >4400 cm” value is 95.8%.

`Cc1cc(-c2cc(-c3cnn4c3C(=O)N(c3ccc(C(F)(F)F)cc3)C[C@@H]4C)no2)ccn1` [Co. No. 6, (7S)-7-methyl-3-[5-(2-methyl-4-pyridyl)isoxazol-3-yl]-5-[4-(trifluoromethyl)phenyl]-6,7-dihydropyrazolo[1,5-a]pyrazin-4-one] yielded a melting point of 118.52 °C. In series [1], the Emax is 114% and the IC50 is 40.7 nM.

In turn, `Cc1cncc(-c2cc(-c3cnn4c3C(=O)N(c3ccc(C(F)(F)F)c(C)c3)C[C@@H]4C)no2)c1` [Co. No. 16, (7S)-7-methyl-3-[5-(5-methyl-3-pyridyl)isoxazol-3-yl]-5-[3-methyl-4-(trifluoromethyl)phenyl]-6,7-dihydropyrazolo[1,5-a]pyrazin-4-one] displayed a melting point of 172.9 °C. In series [1], the maximal effect (Emax) amounted to 110% and the IC50 is 21.4 nM.

In turn, `C[C@H]1CN(c2ccc(C(F)(F)F)c(Cl)c2)C(=O)c2c(-c3cc(-c4cnccn4)on3)cnn21` [Co. No. 13, (7S)-5-[3-chloro-4-(trifluoromethyl)phenyl]-7-methyl-3-(5-pyrazin-2-ylisoxazol-3-yl)-6,7-dihydropyrazolo[1,5-a]pyrazin-4-one] yielded a melting point of 205.91 °C. Moreover, in series [1], the Emax amounted to 106% and the IC50 is 6.03 nM.

`C[C@H]1CN(c2ccc(C(F)(F)F)c(Cl)c2)C(=O)c2c(-c3cc(-c4ccccn4)on3)cnn21` [Co. No. 10, (7S)-5-[3-chloro-4-(trifluoromethyl)phenyl]-7-methyl-3-[5-(2-pyridyl)isoxazol-3-yl]-6,7-dihydropyrazolo[1,5-a]pyrazin-4-one] came in with a melting point of 188.25 °C. Further, in series [1], the Emax worked out at 106% and the IC50 is 4.79 nM. Further, the ED50 in series [2] was above 0.63 mg/kg.

Take `Cc1cc(N2C[C@H](C)n3ncc(-c4cc(-c5cccnc5)on4)c3C2=O)ccc1C(F)(F)F` [Co. No. 15, (7S)-7-methyl-5-[3-methyl-4-(trifluoromethyl)phenyl]-3-[5-(3-pyridyl)isoxazol-3-yl]-6,7-dihydropyrazolo[1,5-a]pyrazin-4-one]: the melting point stood at 120.21 °C. Further, in series [1], the Emax came to 108% and the IC50 was 5.5 nM. For the same compound, the ED50 in series [2] is above 0.63 mg/kg.

For `Cc1ccncc1-c1cc(-c2cnn3c2C(=O)N(c2ccc(C(F)(F)F)c(Cl)c2)C[C@@H]3C)no1` [Co. No. 20, (7S)-5-[3-chloro-4-(trifluoromethyl)phenyl]-7-methyl-3-[5-(4-methyl-3-pyridyl)isoxazol-3-yl]-6,7-dihydropyrazolo[1,5-a]pyrazin-4-one], the melting point is 149.63 °C. Further, in series [1], the Emax turned out to be 113% and the IC50 was 1.41 nM. In series [2], the ED50 came to 0.51 mg/kg.

`C[C@H]1CN(c2ccc(C(F)(F)F)cc2)C(=O)c2c(-c3cc(-c4ccccc4)on3)cnn21` [Co. No. 3, (7S)-7-methyl-3-(5-phenylisoxazol-3-yl)-5-[4-(trifluoromethyl)phenyl]-6,7-dihydropyrazolo[1,5-a]pyrazin-4-one] showed a melting point of 194.25 °C. Further, in series [1], the Emax turned out to be 103% and the IC50 is 9.12 nM.

`Cc1cc(N2C[C@H](C)n3ncc(-c4cc(-c5ccccn5)on4)c3C2=O)ccc1C(F)(F)F` [Co. No. 14, (7S)-7-methyl-5-[3-methyl-4-(trifluoromethyl)phenyl]-3-[5-(2-pyridyl)isoxazol-3-yl]-6,7-dihydropyrazolo[1,5-a]pyrazin-4-one]: the melting point stood at 155.07 °C. In addition, in series [1], the Emax came to 107% and the IC50 was 14.8 nM.

Consider `Cc1cc(-c2cnn3c2C(=O)N(c2ccc(C(F)(F)F)c(Cl)c2)C[C@@H]3C)no1` [Co. No. 8, (7S)-5-[3-chloro-4-(trifluoromethyl)phenyl]-7-methyl-3-(5-methylisoxazol-3-yl)-6,7-dihydropyrazolo[1,5-a]pyrazin-4-one], for which, in series [1], the Emax amounted to 110% and the IC50 is 16.2 nM.

`CNc1cc(-c2cc(-c3cnn4c3C(=O)N(c3ccc(C(F)(F)F)cc3)C[C@@H]4C)no2)ccn1` [Co. No. 25, (7S)-7-methyl-3-[5-[2-(methylamino)-4-pyridyl]isoxazol-3-yl]-5-[4-(trifluoromethyl)phenyl]-6,7-dihydropyrazolo[1,5-a]pyrazin-4-one] yielded a melting point of 208.39 °C. Besides, in series [1], the Emax was determined as 110% and the IC50 is 25.1 nM.

In turn, `C[C@H]1CN(c2ccc(C(F)(F)F)cc2)C(=O)c2c(-c3cc(-c4ccccn4)on3)cnn21` [Co. No. 4, (7S)-7-methyl-3-[5-(2-pyridyl)isoxazol-3-yl]-5-[4-(trifluoromethyl)phenyl]-6,7-dihydropyrazolo[1,5-a]pyrazin-4-one] returned a melting point of 193.65 °C. In addition, in series [1], the Emax was 106% and the IC50 was 40.7 nM.

In the case of `Cc1cc(N2C[C@H](C)n3ncc(-c4cc(-c5cnccn5)on4)c3C2=O)ccc1C(F)(F)F` [Co. No. 17, (7S)-7-methyl-5-[3-methyl-4-(trifluoromethyl)phenyl]-3-(5-pyrazin-2-ylisoxazol-3-yl)-6,7-dihydropyrazolo[1,5-a]pyrazin-4-one], the melting point came to 181.57 °C. For the same compound, in series [1], the Emax worked out at 106% and the IC50 was 17.4 nM.

Consider `C[C@H]1CN(c2ccc(C(F)(F)F)c(Cl)c2)C(=O)c2c(-c3cc(-c4ccc(N)nc4)on3)cnn21` [Co. No. 9, (7S)-3-[5-(6-amino-3-pyridyl)isoxazol-3-yl]-5-[3-chloro-4-(trifluoromethyl)phenyl]-7-methyl-6,7-dihydropyrazolo[1,5-a]pyrazin-4-one], for which, in series [1], the Emax was determined as 113% and the IC50 was 1.15 nM.

In turn, `Cc1cc(-c2cnn3c2C(=O)N(c2ccc(C(F)(F)F)cc2)C[C@@H]3C)no1` [Co. No. 1, (7S)-7-Methyl-3-(5-methylisoxazol-3-yl)-5-[4-(trifluoromethyl)phenyl]-6,7-dihydropyrazolo[1,5-a]pyrazin-4-one] yielded a melting point of 165.04 °C. In addition, in series [1], the Emax turned out to be 103% and the IC50 was 69.2 nM.
